Measurements taken from ChEMBL document CHEMBL4507275, “Data for DCP probe BI-2545” (2021).

Legend:
[1] = target: Serine/threonine-protein kinase ULK2 (Homo sapiens) (UniProt Q8IYT8); conditions: Compound concentration 1000.0 nM
[2] = target: Cyclin-G-associated kinase (Homo sapiens) (UniProt O14976); conditions: Compound concentration 1000.0 nM
[3] = target: Mitogen-activated protein kinase 3 (Homo sapiens) (UniProt P27361); conditions: Compound concentration 1000.0 nM
[4] = tested on: Phosphatidylinositol 4,5-bisphosphate 3-kinase catalytic subunit alpha isoform (Homo sapiens), P42336 [E542K]; conditions: Compound concentration 1000.0 nM
[5] = target: Ribosomal protein S6 kinase alpha-4 (Homo sapiens) (UniProt O75676); conditions: Compound concentration 1000.0 nM
[6] = target: Muscle, skeletal receptor tyrosine-protein kinase (Homo sapiens) (UniProt O15146); conditions: Compound concentration 1000.0 nM
[7] = target: Serine/threonine-protein kinase 32C (Homo sapiens) (UniProt Q86UX6); conditions: Compound concentration 1000.0 nM
Serine/threonine-protein kinase 32C (Homo sapiens), sequence (Q86UX6 whole entry): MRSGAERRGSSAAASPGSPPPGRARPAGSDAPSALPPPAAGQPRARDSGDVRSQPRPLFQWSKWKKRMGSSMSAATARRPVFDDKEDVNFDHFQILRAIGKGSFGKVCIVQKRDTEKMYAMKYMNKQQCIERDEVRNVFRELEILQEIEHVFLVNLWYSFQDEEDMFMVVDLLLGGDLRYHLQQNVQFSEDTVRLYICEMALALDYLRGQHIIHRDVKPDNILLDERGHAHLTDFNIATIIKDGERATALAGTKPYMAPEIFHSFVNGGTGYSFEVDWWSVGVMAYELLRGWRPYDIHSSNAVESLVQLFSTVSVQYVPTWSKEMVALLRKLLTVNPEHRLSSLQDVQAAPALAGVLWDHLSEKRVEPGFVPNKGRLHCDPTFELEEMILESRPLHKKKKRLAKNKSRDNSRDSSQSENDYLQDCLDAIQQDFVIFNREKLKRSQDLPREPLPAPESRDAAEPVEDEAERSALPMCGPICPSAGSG

[8] = target: Dual specificity mitogen-activated protein kinase kinase 1 (Homo sapiens) (UniProt Q02750); conditions: Compound concentration 1000.0 nM
[9] = target: Macrophage colony-stimulating factor 1 receptor (Homo sapiens) (UniProt P07333); conditions: Compound concentration 1000.0 nM
[10] = target: Serine/threonine-protein kinase 32A (Homo sapiens) (UniProt Q8WU08); conditions: Compound concentration 1000.0 nM
[11] = tested on: Tyrosine-protein kinase ABL1 (Homo sapiens), P00519 [H396P]; conditions: Compound concentration 1000.0 nM
[12] = target: TGF-beta receptor type-1 (Homo sapiens) (UniProt P36897); conditions: Compound concentration 1000.0 nM
[13] = target: Ribosomal protein S6 kinase alpha-5 (Homo sapiens) (UniProt O75582); conditions: Compound concentration 1000.0 nM
[14] = target: Vascular endothelial growth factor receptor 3 (Homo sapiens) (UniProt P35916); conditions: Compound concentration 1000.0 nM
[15] = target: Maternal embryonic leucine zipper kinase (Homo sapiens) (UniProt Q14680); conditions: Compound concentration 1000.0 nM
[16] = target: Mitogen-activated protein kinase kinase kinase 7 (Homo sapiens) (UniProt O43318); conditions: Compound concentration 1000.0 nM
[17] = target: 5-hydroxytryptamine receptor 1B (Homo sapiens) (UniProt P28222); conditions: Compound concentration 10.0 uM
[18] = target: 5-hydroxytryptamine receptor 2B (Homo sapiens) (UniProt P41595); conditions: Compound concentration 10.0 uM
[19] = target: Microtubule-associated serine/threonine-protein kinase 1 (Homo sapiens) (UniProt Q9Y2H9); conditions: Compound concentration 1000.0 nM
[20] = target: Dual specificity mitogen-activated protein kinase kinase 6 (Homo sapiens) (UniProt P52564); conditions: Compound concentration 1000.0 nM
[21] = target: Aurora kinase C (Homo sapiens) (UniProt Q9UQB9); conditions: Compound concentration 1000.0 nM
[22] = target: Serine/threonine-protein kinase 16 (Homo sapiens) (UniProt O75716); conditions: Compound concentration 1000.0 nM
[23] = tested on: Epidermal growth factor receptor (Homo sapiens), P00533 [G719S]; conditions: Compound concentration 1000.0 nM
[24] = target: Insulin receptor (Homo sapiens) (UniProt P06213); conditions: Compound concentration 1000.0 nM
[25] = target: Serine/threonine-protein kinase RIO1 (Homo sapiens) (UniProt Q9BRS2); conditions: Compound concentration 1000.0 nM
Serine/threonine-protein kinase RIO1 (Homo sapiens), sequence (Q9BRS2 whole entry): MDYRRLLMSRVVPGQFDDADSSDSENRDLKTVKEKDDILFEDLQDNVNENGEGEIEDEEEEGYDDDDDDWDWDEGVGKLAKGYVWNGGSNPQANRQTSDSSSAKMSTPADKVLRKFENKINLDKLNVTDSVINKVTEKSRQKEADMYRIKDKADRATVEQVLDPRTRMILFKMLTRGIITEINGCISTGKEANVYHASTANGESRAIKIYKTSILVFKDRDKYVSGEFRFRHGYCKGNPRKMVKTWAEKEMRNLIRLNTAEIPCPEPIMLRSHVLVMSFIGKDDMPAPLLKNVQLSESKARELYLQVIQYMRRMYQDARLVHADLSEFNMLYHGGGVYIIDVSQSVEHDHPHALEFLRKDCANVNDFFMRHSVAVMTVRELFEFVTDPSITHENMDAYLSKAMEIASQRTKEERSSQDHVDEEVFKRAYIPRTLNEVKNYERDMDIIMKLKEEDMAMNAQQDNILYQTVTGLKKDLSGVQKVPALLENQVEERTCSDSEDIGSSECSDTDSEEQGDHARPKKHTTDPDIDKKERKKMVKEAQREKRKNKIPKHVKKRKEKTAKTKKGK

[26] = target: Serine/threonine-protein kinase D2 (Homo sapiens) (UniProt Q9BZL6); conditions: Compound concentration 1000.0 nM
[27] = target: TGF-beta receptor type-2 (Homo sapiens) (UniProt P37173); conditions: Compound concentration 1000.0 nM
[28] = tested on: Receptor-type tyrosine-protein kinase FLT3 (Homo sapiens), P36888 [N841I]; conditions: Compound concentration 1000.0 nM
[29] = target: NUAK family SNF1-like kinase 1 (Homo sapiens) (UniProt O60285); conditions: Compound concentration 1000.0 nM
NUAK family SNF1-like kinase 1 (Homo sapiens), sequence (O60285 whole entry): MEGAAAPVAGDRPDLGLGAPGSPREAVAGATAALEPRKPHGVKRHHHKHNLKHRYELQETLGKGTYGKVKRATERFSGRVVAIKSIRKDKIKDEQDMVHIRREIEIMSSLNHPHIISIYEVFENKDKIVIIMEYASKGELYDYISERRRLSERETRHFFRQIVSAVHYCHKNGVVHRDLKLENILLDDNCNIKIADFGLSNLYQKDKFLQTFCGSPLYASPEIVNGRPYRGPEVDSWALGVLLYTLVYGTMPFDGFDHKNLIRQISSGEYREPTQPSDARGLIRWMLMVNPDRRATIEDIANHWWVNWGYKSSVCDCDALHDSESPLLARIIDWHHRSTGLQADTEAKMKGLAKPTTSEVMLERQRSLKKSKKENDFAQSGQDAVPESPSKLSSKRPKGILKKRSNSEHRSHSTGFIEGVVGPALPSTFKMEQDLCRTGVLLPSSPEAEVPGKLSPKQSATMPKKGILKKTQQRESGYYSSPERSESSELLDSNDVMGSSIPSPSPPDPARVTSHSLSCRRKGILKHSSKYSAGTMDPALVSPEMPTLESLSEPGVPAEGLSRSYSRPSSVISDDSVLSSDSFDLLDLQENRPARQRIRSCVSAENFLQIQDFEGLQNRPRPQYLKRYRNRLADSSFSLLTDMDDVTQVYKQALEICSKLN

[30] = target: Cyclin-dependent kinase 11B (Homo sapiens) (UniProt P21127); conditions: Compound concentration 1000.0 nM
[31] = target: Serine/threonine-protein kinase MARK2 (Homo sapiens) (UniProt Q7KZI7); conditions: Compound concentration 1000.0 nM
[32] = target: Serine/threonine-protein kinase Sgk2 (Homo sapiens) (UniProt Q9HBY8); conditions: Compound concentration 1000.0 nM
[33] = target: Glycogen synthase kinase-3 beta (Homo sapiens) (UniProt P49841); conditions: Compound concentration 1000.0 nM
[34] = target: Hepatocyte growth factor receptor (Homo sapiens) (UniProt P08581); conditions: Compound concentration 1000.0 nM
[35] = target: Bone morphogenetic protein receptor type-2 (Homo sapiens) (UniProt Q13873); conditions: Compound concentration 1000.0 nM
[36] = target: Tyrosine-protein kinase Blk (Homo sapiens) (UniProt P51451); conditions: Compound concentration 1000.0 nM
Tyrosine-protein kinase Blk (Homo sapiens), sequence (P51451 2-505 limits assumed): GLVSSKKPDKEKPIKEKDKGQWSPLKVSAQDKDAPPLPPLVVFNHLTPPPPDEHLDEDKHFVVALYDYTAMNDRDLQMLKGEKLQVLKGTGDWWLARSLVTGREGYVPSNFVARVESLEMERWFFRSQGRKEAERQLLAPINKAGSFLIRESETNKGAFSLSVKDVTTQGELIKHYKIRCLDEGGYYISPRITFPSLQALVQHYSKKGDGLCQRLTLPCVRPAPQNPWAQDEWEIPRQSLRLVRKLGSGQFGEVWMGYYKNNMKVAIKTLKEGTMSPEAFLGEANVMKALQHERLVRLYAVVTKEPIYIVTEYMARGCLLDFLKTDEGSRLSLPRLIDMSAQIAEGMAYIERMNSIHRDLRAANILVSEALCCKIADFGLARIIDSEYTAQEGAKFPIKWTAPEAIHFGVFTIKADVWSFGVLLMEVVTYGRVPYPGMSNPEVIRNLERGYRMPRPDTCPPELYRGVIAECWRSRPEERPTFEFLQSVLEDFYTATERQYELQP

[37] = target: Serine/threonine-protein kinase PAK 6 (Homo sapiens) (UniProt Q9NQU5); conditions: Compound concentration 1000.0 nM
[38] = target: Mitogen-activated protein kinase kinase kinase 13 (Homo sapiens) (UniProt O43283); conditions: Compound concentration 1000.0 nM
[39] = target: Ribosomal protein S6 kinase beta-1 (Homo sapiens) (UniProt P23443); conditions: Compound concentration 1000.0 nM
[40] = tested on: Tyrosine-protein kinase ABL1 (Homo sapiens), P00519 [T315I]; conditions: Compound concentration 1000.0 nM
[41] = target: Peripheral plasma membrane protein CASK (Homo sapiens) (UniProt O14936); conditions: Compound concentration 1000.0 nM
Peripheral plasma membrane protein CASK (Homo sapiens), sequence (O14936 whole entry): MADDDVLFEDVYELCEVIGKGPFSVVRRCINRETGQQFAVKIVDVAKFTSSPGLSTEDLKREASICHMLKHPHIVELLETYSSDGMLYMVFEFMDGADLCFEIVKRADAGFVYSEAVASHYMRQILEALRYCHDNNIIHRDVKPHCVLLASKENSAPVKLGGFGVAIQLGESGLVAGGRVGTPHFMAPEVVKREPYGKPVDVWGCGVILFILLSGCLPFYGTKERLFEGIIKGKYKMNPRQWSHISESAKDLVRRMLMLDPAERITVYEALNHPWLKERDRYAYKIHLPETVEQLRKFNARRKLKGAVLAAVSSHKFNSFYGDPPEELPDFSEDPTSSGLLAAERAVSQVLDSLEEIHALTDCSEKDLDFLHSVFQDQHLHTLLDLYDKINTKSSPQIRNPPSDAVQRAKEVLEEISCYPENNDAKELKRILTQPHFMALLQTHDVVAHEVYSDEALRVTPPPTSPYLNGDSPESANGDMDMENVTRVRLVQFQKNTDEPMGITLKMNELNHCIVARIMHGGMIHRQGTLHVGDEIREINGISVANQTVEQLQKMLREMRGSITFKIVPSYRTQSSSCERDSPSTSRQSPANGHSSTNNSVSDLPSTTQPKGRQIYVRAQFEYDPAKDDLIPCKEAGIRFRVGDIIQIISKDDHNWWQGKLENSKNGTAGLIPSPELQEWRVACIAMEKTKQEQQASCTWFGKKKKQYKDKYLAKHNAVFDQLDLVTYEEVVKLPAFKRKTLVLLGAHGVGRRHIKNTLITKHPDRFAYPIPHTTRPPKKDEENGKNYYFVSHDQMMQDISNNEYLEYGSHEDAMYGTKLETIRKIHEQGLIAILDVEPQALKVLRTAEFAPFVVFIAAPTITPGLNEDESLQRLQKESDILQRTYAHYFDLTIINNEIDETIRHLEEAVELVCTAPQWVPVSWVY

[42] = target: Ephrin type-A receptor 1 (Homo sapiens) (UniProt P21709); conditions: Compound concentration 1000.0 nM
[43] = target: Calcium/calmodulin-dependent protein kinase kinase 2 (Homo sapiens) (UniProt Q96RR4); conditions: Compound concentration 1000.0 nM
Calcium/calmodulin-dependent protein kinase kinase 2 (Homo sapiens), sequence (Q96RR4 2-588 limits assumed): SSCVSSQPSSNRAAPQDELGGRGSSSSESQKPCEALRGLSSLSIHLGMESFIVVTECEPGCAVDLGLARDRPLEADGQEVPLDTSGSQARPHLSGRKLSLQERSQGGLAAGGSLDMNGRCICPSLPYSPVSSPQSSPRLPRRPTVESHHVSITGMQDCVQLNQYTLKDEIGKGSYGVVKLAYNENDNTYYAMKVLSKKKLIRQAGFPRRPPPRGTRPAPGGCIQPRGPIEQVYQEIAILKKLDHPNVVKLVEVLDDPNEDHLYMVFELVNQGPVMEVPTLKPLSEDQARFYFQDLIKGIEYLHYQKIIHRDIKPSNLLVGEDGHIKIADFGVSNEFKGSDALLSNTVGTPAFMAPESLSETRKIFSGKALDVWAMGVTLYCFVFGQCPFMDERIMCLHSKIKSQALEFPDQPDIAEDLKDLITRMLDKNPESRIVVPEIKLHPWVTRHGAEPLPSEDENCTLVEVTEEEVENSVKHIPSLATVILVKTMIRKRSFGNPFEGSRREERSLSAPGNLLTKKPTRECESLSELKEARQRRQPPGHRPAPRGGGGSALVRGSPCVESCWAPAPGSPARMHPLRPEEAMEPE

[44] = target: Tyrosine-protein kinase Lck (Homo sapiens) (UniProt P06239); conditions: Compound concentration 1000.0 nM
[45] = target: Serine/threonine-protein kinase MRCK alpha (Homo sapiens) (UniProt Q5VT25); conditions: Compound concentration 1000.0 nM

Cyclin-G-associated kinase (Homo sapiens), sequence (O14976 whole entry): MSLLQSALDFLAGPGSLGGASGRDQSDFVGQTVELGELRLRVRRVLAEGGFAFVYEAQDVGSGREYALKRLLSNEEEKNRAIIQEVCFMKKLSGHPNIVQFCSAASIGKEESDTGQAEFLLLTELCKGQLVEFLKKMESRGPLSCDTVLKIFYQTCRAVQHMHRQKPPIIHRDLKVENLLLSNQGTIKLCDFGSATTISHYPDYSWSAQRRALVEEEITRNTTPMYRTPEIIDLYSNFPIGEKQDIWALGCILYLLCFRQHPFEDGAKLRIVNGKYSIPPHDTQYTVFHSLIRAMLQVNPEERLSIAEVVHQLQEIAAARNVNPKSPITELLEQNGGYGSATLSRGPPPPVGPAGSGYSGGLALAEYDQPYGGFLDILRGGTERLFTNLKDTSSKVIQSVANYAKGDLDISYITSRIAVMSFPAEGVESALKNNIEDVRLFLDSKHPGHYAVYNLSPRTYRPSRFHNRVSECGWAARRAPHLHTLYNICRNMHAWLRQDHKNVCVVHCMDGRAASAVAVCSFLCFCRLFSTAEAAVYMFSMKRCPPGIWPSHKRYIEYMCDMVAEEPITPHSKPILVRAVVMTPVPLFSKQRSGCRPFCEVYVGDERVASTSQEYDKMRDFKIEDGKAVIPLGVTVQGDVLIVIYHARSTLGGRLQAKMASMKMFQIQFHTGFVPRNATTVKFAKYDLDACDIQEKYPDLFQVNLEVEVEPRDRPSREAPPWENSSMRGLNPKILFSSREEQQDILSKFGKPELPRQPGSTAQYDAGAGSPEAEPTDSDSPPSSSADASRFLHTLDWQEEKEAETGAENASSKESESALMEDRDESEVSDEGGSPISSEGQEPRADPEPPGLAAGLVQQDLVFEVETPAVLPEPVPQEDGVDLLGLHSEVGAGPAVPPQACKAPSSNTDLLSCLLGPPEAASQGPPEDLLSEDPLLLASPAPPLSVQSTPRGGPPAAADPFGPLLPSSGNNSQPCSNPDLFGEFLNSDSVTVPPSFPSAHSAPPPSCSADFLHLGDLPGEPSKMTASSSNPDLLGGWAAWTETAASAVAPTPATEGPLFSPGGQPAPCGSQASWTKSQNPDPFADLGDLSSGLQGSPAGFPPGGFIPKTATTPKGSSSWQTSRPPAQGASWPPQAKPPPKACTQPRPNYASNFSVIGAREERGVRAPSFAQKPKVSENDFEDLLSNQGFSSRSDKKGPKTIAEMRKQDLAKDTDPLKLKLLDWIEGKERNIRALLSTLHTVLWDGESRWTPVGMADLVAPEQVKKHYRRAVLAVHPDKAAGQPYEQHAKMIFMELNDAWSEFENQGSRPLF

Cc1nccc(COC(=O)N2C[C@@H]3[C@@H](CNC(=O)c4ccc5[nH]nnc5c4)[C@@H]3C2)n1 [BI 3017]
inactive: residual activity [1] 77% | residual activity [2] 100% | residual activity [3] 92% | residual activity [4] 86% | residual activity [5] 100% | residual activity [6] 100% | residual activity [7] 95% | residual activity [8] 92% | residual activity [9] 100% | residual activity [10] 94% | residual activity [11] 93% | residual activity [12] 100% | residual activity [13] 74% | residual activity [14] 100% | residual activity [15] 100% | residual activity [16] 75% | inhibition [17] 4.4% | inhibition [18] 27.1% | residual activity [19] 100% | residual activity [20] 100% | residual activity [21] 100% | residual activity [22] 80% | residual activity [23] 100% | residual activity [24] 84% | residual activity [25] 100% | residual activity [26] 92% | residual activity [27] 100% | residual activity [28] 82% | residual activity [29] 82% | residual activity [30] 100% | residual activity [31] 97% | residual activity [32] 100% | residual activity [33] 100% | residual activity [34] 94% | residual activity [35] 81% | residual activity [36] 93% | residual activity [37] 95% | residual activity [38] 65% | residual activity [39] 84% | residual activity [40] 90% | residual activity [41] 72% | residual activity [42] 100% | residual activity [43] 100% | residual activity [44] 94% | residual activity [45] 100%

O=C(NC[C@@H]1[C@H]2CN(C(=O)OCc3cc(C(F)(F)F)cc(C(F)(F)F)c3)C[C@@H]12)c1ccc2[nH]nnc2c1 [BI 2545]
inactive: residual activity [1] 97% | residual activity [2] 91% | residual activity [3] 100% | residual activity [4] 75% | residual activity [5] 100% | residual activity [6] 77% | residual activity [7] 90% | residual activity [8] 83% | residual activity [9] 95% | residual activity [10] 72% | residual activity [11] 84% | residual activity [12] 97% | residual activity [13] 100% | residual activity [14] 88% | residual activity [15] 97% | residual activity [16] 94% | inhibition [17] 17.9% | inhibition [18] 45.9% | residual activity [19] 100% | residual activity [20] 72% | residual activity [21] 91% | residual activity [22] 100% | residual activity [23] 100% | residual activity [24] 83% | residual activity [25] 69% | residual activity [26] 85% | residual activity [27] 100% | residual activity [28] 90% | residual activity [29] 87% | residual activity [30] 100% | residual activity [31] 89% | residual activity [32] 66% | residual activity [33] 98% | residual activity [34] 100% | residual activity [35] 90% | residual activity [36] 100% | residual activity [37] 93% | residual activity [38] 86% | residual activity [39] 86% | residual activity [40] 82% | residual activity [41] 70% | residual activity [42] 100% | residual activity [43] 91% | residual activity [44] 100% | residual activity [45] 100%
